Test results as given in paper PMC9913425, “Pentacyclic Triterpenoids-Based Ionic Compounds: Synthesis, Study of Structure–Antitumor Activity Relationship, Effects on Mitochondria and Activation of Signaling Pathways of Proliferation, Genome Reparation and Early Apoptosis” (Cancers, 2023).

Assays:
Jurkat = test: In vitro cytotoxicity, IC50 by flow cytometry (Guava ViaCount); assay type: cell-based; conditions: Jurkat cells
How it was run: (§1)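 Cells were grown at 37 °C under 5% CO2; the Jurkat, K562 and HL60 lines were kept in RPMI 1640 with 10% FBS, […] and penicillin–streptomycin. Cells were seeded at 5 × 10^4 per well and incubated overnight. IC50 was derived from Guava ViaCount flow cytometry.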

K562 = test: as above; assay type: cell-based
How it was run: as §1

HEK293 = test: as above; assay type: cell-based; conditions: conditionally normal
How it was run: (§2)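 Suspension lines kept in RPMI 1640 with 10% FBS and […] at 37 °C, 5% CO2; cells seeded at 5 × 10^4 per well and incubated overnight before compound exposure. Viability counted by flow cytometry with Guava ViaCount staining to derive IC50.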

U937 = test: as above; assay type: cell-based
How it was run: as §2

p21 = test: Luminex xMAP panel, p21 protein content; assay type: cell-based; conditions: Jurkat cells; 12a 0.006 µM, 13d 0.004 µM per 100,000 cells; first 6 h
[1] = test system: mitochondria of Jurkat tumor cells; test: Mitochondrial damage (MitoSense Red staining); assay type: cell-based; conditions: compound at IC50 concentration, incubation 2 h
STAT5 = test: Luminex xMAP Multi-Pathway 9-plex, tyrosine-phosphorylated STAT5; assay type: cell-based; conditions: Jurkat cells; 12a 0.006 µM, 13d 0.004 µM per 100,000 cells; lasting up to 12 h
Text: (§3) The determination of proteins in a cell by Luminex xMAP technology is characterized by the presence of multiplex multiparametric analysis with the simultaneous use of a multiplex of antibodies with a fluorescent label and magnetic particles, thereby resulting in an increase in the sensitivity of the technique and expansion of the dynamic range, as well as an increase in detection accuracy. Luminex XMAP technology provides a simultaneous analysis of a sufficient number of different proteins in various types of biological fluids (plasma, serum, cerebrospinal fluid, follicular fluid, tissue lysate, etc.) and in cell supernatants. […]
(§4) Magnetic microspheres (stained inside with two fluorescent dyes) in combination with monoclonal antibodies against the analyzed analytes (the main intracellular kinases in this case) are incubated with the samples and standards; then, the samples/standards are incubated with biotinylated monoclonal antibodies against the analyzed analytes and, finally, with a solution of streptavidin–phycoerythrin. The Luminex technology identifies the different proteins present in each well and converts the mean fluorescence intensity (MFI) of each measured cytokine to pg/mL using software and standard curves. […]
(§5) The specific role of STAT3 and STAT5 was assessed by changes in the content of tyrosine-phosphorylated forms of these proteins (STAT3(ph) and STAT5(ph)). […]

Jurkat tumor cells = test: Release of cytochrome c from mitochondria (anti-cytochrome C FITC, cytofluorimetry); assay type: cell-based; conditions: compound at IC50, incubation 3 h
Method: Staurosporine (an inhibitor of most kinases in the cell) was taken as a control compound.
Figure 2 Release of cytochrome C from mitochondria under the influence of ionic liquids in Jurkat tumor cells. Anti-cytochrome C FITC antibodies were used for staining. […] Incubation with test compounds was 3 h. TEXT PRINTED IN THE PICTURE: (b) 344: Negative 30.82%; Positive 64.67% | (c) 214: Negative 40.58%; Positive 56.16% | (d) 346: Negative 19.43%; Positive 76.96% DOUBTS OF THE COPYIST ABOUT THIS PICTURE: The picture prints only sample codes (344, 214, 346; each followed by '/ E3'), not compound numbers or names; these codes are used as labels. / Panel a (sample code 211-4h, Negative 5.82%, Positive 93.68%) appears to be an untreated control, not a substance, and is left out. / Print is small: b, Negative 30.82% (8 or 6); c, Positive 56.16% (6 or 8); d, Positive 76.96% (6 or 8, 9 or 8).

A2780 = test: In vitro cytotoxicity, IC50 by flow cytometry (Guava ViaCount); assay type: cell-based, human
How it was run: as §2

HL60 = test: as above; assay type: cell-based, human
How it was run: as §1

STAT3 = test: Luminex xMAP Multi-Pathway 9-plex, tyrosine-phosphorylated STAT3; assay type: cell-based; conditions: Jurkat cells; 12a 0.006 µM, 13d 0.004 µM per 100,000 cells; up to 12 h; compared with STAT5 (3-fold)
Text: as §3, §4, §5

Row | SMILES | IC50 (Jurkat; Homo sapiens, Jurkat) [nM] | IC50 (K562; Homo sapiens, K562, K562 cells) [nM] | IC50 (HEK293; Homo sapiens, HEK293, HEK293 cells) [nM] | IC50 (U937; Homo sapiens, U-937, U937 cells) [nM] | expression of p21 protein (p21) | Mito-Damage (%) [1] [%] | increase in the content of STAT5 (STAT5) [fold] | cytochrome c release from mitochondria (cytochrome C Negative cells) (Jurkat tumor cells) [%] | IC50 (A2780; Homo sapiens, A2780, A2780 cells) [nM] | IC50 (HL60; Homo sapiens, HL-60, HL60 cells) [nM] | increase in the content of STAT3 (STAT3) | IC50 (Jurkat) [nM] | IC50 (K562; K562 cells) [nM] | IC50 (HEK293; HEK293 cells) [nM] | IC50 (U937; U937 cells) [nM] | IC50 (A2780; A2780 cells) [nM] | IC50 (HL60; HL60 cells) [nM]
1 | CC1(C)CC[C@]2(C(=O)OCCCCCC[n+]3ccccc3)CC[C@]3(C)C(=CCC4[C@@]5(C)CC[C@H](O)C(C)(C)C5CC[C@]43C)C2C1 (stereo partly drawn) [12a, 1-(6-{[(3β)-3-Hydroxyolean-12-en-28-oyl]oxy}hexyl)-pyridinium bromide] | 6 ± 1 | 7 ± 1 | 44 ± 4 | 6 ± 1 | significantly increased | 97.89 | 3 | 40.58 | 21 ± 2 | 3 ± 1 | to a lesser extent | – | – | – | – | – | –
2 | CC(=O)[O-].C[n+]1ccn(CCCCCCOC(=O)[C@]23CCC(C)(C)CC2C2=CCC4[C@@]5(C)CC[C@H](O)C(C)(C)C5CC[C@@]4(C)[C@]2(C)CC3)c1 (stereo partly drawn) [13d, 1-(6-{[(3β)-3-Hydroxyolean-12-en-28-oyl]oxy}hexyl)-3-methylimidazolium Acetate] | – | – | – | – | significantly increased | 97.47 | 3 | 19.43 | – | – | to a lesser extent | 4 ± 1 | 6 ± 1 | 29 ± 2 | 5 ± 1 | 16 ± 2 | 2 ± 1
